From patent publication US5188950A, “Method of preparing HIV protease inhibitors” (Merck & Co., Inc., priority 1992, dated 1993)
Values joined by “and” are separate entries in the source; they are usually repeats but may differ in a detail not shown here. Equal entries are not always repeated.

Key:
HIV protease = biological target: T1, HIV protease (Human immunodeficiency virus type 1 group M subtype B, UniProt P12497); test: Inhibition of microbial expressed viral protease (peptide substrate cleavage, HPLC of products); type: biochemical; settings: estimated activities; compounds as isolated from rat liver slices; pH 5.5, 2 hours at 36° C., 283 pM protease
T1 construct: the protease expressed in Escherichia coli; made in house; host or cells: Escherichia coli
Method: Inhibition studies of the reaction of the protease expressed in Escherichia coli with a peptide substrate [Val-Ser-Gln-Asn-(betanapthyl)Ala-Pro-Ile-Val, 0.665 mg/mL at the time the reaction is initiated] were carried out. Aliquots of 40 μl of substrate in substrate buffer (60 mM Na acetate, pH 5.5, in 0.117% BSA) were combined with 10 μl aliquots of various concentrations of inhibitor. The reaction was initiated by the addition of 10 μl of 1.7 nM protease in a solution of 0.05M Na acetate, pH 5.5, in 10% glycerol, 1 mM DTT, 1 mM EDTA, and 64 μM octoxynol-9.5 to yield a final concentration of 283 pM protease. Incubation proceeded for 2 hours at 36° C. The reaction was quenched with 75 ul of 5% phosphoric acid. Products of the reaction were separated by HPLC. The extent of inhibition of the reaction was determined from the peak heights of the products.

[1] = Biotransformation of L-689,502 by rat liver slices; type: in vitro ADME; settings: for metabolite share of the total metabolites: rat liver slices incubated with L-689,502, pH 7.4, 37° C., % of the total metabolites
Method: L-689,502 (5.65 μmole) was incubated at pH 7.4, 37° C., with rat liver slices (1 cm wide, 200-300μ 3.7 g) in 100 ml of Williams' Medium E (composition described in Sigma commercial circular, pages 1-5, herein incorporated by reference for this purpose). A gradual increase in the metabolites in an organic extract of the medium was observed over a period of 5 hours when ~31% of .he drug was metabolized. Three of the major metabolites M1 (6.1% of the total metabolites) and M2 (6.3%) and M4 (12.1%) were characterized by ^1 H-NMR and FAB/Mass spectroscopies. Exact mass measurements, by high resolution FAB/MS, for M1 and M2 gave a molecular ion at m/z 690.375305, which computed to an empirical formula of C39 H52 N3 O8 for the protonated form. The M4 peak was also matched with a synthetic standard by HPLC, MS and NMR.

[2] = Biotransformation of L-689,502 by dog liver slices; type: in vitro ADME; settings: dog liver slices incubated with L-689,502; for metabolite share of the total metabolites: % of the total metabolites

| IC50 (HIV protease) | metabolised at 5 h, 56.5 µM ([1]; over 5 hours, pH 7.4, 37° C., rat liver slices, 5.65 μmole in 100 ml Williams' Medium E, read-out: drug metabolized) [%] | metabolite share of the total metabolites [1] [%] | metabolite share of the total metabolites [2] [%] | amount of metabolite peak (in words) ([2]; HPLC) | SMILES |
| --- | --- | --- | --- | --- | --- |
| 0.93 nM and 0.95 nM | ~31 |  |  |  | CC(C)(C)OC(=O)N[C@@H](Cc1ccccc1)[C@@H](O)C[C@@H](Cc1ccc(OCCN2CCOCC2)cc1)C(=O)N[C@H]1c2ccccc2C[C@H]1O [L-689,502, N-(cis-2(R)-hydroxy-1(S)-indanyl)-5(S)-(1,1-dimethylethoxycarbonylamino)-4(S)-hydroxy-6-phenyl-2(R)-[(4-(2-(4-morpholinyl)ethoxy)phenyl)methyl]-hexanamide] |
| 1.3 nM |  | 6.3 | 1.6 |  | CC(C)(C)OC(=O)N[C@@H](Cc1ccccc1)[C@@H](O)C[C@@H](Cc1ccc(OCCN2CCOCC2)cc1)C(=O)N[C@H]1c2cccc(O)c2C[C@H]1O [M2] |
| 2.7 nM |  | 6.1 | 13.1 |  | CC(C)(C)OC(=O)N[C@@H](Cc1ccccc1)[C@@H](O)C[C@@H](Cc1ccc(OCCN2CCOCC2)cc1)C(=O)N[C@H]1c2ccccc2[C@H](O)[C@H]1O [M1] |
| ~0.5 nM |  | 12.1 |  | a small amount | CC(C)(C)OC(=O)N[C@@H](Cc1ccccc1)[C@@H](O)C[C@@H](Cc1ccc(OCCN2CCOCC2=O)cc1)C(=O)N[C@H]1c2ccccc2C[C@H]1O [M4] |
